The text below walks through data of patent US20220249457A1, “METHOD OF MODULATING RIBONUCLEOTIDE REDUCTASE” (CASE WESTERN RESERVE UNIVERSITY, priority 2019, published 2022).

One series deals with T1, hRRM1 (Homo sapiens, UniProt P23921).
T1 construct: made in house; host or cells: E. coli BL21 DE3 (RIL)
T1 sequence (P23921 1-792): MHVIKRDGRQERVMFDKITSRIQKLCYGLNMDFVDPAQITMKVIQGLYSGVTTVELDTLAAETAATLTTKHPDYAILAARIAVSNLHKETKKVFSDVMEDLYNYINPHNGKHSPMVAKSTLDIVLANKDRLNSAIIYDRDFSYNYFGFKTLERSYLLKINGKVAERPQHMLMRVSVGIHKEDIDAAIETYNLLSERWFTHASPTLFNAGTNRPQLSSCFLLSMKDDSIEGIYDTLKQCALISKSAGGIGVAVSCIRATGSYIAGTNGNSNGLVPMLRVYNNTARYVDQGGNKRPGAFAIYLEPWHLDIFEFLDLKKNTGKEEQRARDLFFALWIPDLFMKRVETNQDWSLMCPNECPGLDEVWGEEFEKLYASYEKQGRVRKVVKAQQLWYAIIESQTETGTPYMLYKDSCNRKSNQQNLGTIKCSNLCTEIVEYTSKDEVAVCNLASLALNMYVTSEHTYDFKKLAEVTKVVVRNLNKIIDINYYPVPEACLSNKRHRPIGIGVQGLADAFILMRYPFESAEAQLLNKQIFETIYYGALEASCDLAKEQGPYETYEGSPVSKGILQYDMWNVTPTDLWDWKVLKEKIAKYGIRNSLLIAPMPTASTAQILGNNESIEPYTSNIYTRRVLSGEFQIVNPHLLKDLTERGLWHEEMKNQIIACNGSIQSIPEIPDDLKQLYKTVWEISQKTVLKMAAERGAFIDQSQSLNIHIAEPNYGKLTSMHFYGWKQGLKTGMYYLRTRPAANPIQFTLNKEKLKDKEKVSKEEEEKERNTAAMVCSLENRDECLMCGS
Description: hRRM1 enzyme activity inhibition (RR radioactivity assay, boronate chromatography). Particulars: potency ranking by minimum concentration required to inhibit enzyme activity; six concentrations 1-100 μM incubated with hRRM1 30 minutes, diluted by a factor of 5. The class given is biochemical. Also noted: key: Compounds which are found to have extremely high potency are classified as “****”; Compounds which are found to have very high potency […] are classified as “***”. How it is done: Activity measurements in Table 2 is performed as described below. Briefly, six concentrations of the compounds ranging from 1-100 μM of the compounds are incubated on ice with 2.5 μmol of hRRM1 for 30 minutes. The assay sample was then diluted by a factor of 5, and enzyme activity was assayed in triplicate. […] Activity measurements are based on the qualitative relation between the minimum concentration of compound required to produce inhibit enzyme activity. Potency activities are ranked as either extremely high, very high or significant. These activities are used to determine the activity ranking. Compounds which are found to have extremely high potency are classified as “****” Compounds which are found to have very high potency […] are classified as “***”. Compounds which are found to have significant potency are classified as
In assay buffer, six concentrations of the compounds ranging from 1-100 μM of the compounds are incubated on ice with 2.5 μmol of hRRM1 for 30 minutes. The assay sample was then diluted by a factor of 5, and enzyme activity was assayed in triplicate.
The IC50 are determined using, boronate chromatography. Six concentrations of the RRmod are studied ranging from 1-100 μM. The assay is repeated in triplicate. Data are fitted in GraphPad Prism 6.05 using a sigmoidal dose-response curve.
Turning to `Oc1ccccc1-c1nnc(-c2ccccc2O)o1`, the Activity entry is “***”.

Take `COc1ccc(Br)c(-c2nnc(-c3ccccc3O)o2)c1O`: the Activity result is reported as “***”.

Take `COc1ccc(-c2ccsc2)c(-c2nnc(-c3ccccc3O)o2)c1O`: the Activity result is “***”.

Take `Oc1ccccc1-c1nc(-c2ccccc2Br)no1`: the Activity result is “****”.

`Oc1ccccc1-c1nnc(-c2cc(-c3ccccc3)ccc2O)o1`: the Activity result is listed as “***”.

`COc1ccc(-c2ccccc2)c(-c2nnc(-c3ccccc3O)o2)c1O`: the Activity entry is reported as “***”.

With `Oc1ccccc1-c1nc(-c2ccccc2-c2ccccc2)no1`, the Activity entry was “***”.

For the compound `Oc1ccccc1-c1nc(-c2ccccc2-c2ccsc2)no1`, the Activity result is on record as “***”.

On to `Oc1ccccc1-c1cnc(-c2ccccc2O)s1`, for which the Activity result was “***”.

On to `COc1ccc(-c2cnc(-c3ccccc3O)s2)cc1`, for which the Activity result was “***”.

As to `Oc1ccccc1-c1noc(-c2cccs2)n1`, the Activity entry is “***”.

For `Oc1ccccc1-c1noc(-c2cccnc2)n1`, the Activity result is reported as “****”.

In the case of `Oc1ccccc1-c1nc(-c2cccnc2)no1`, the Activity result was “****”.

Turning to `c1cncc(-c2noc(-c3cccnc3)n2)c1`, the Activity result is recorded as “****”.

In the case of `c1cncc(-c2noc(-c3cnc4ccccc4c3)n2)c1`, the Activity entry is recorded as “***”.

As for `c1cncc(-c2noc(-c3ccco3)n2)c1`, the Activity entry is reported as “***”.

On to `c1cncc(-c2noc(-c3cccs3)n2)c1`, for which the Activity entry is given as “***”.

Turning to `COc1ccccc1-c1noc(-c2ccccc2O)n1`, the Activity entry was “***”.

Turning to `COc1ccccc1-c1nc(-c2ccccc2O)no1`, the Activity result is on record as “****”.

With `Oc1ccccc1-c1nc(-c2ccccc2OCc2ccccc2)no1`, the Activity result is reported as “***”.

On to `Oc1ccccc1-c1c[nH]c(-c2ccccc2O)n1`, for which the Activity result is “***”.

For the compound `Oc1ccccc1-c1cn(-c2ccccc2O)nn1`, the Activity result is listed as “***”.

In the case of `Oc1ccccc1-c1nnn(-c2ccccc2O)n1`, the Activity result is “***”.

Take `Oc1ccc(Br)cc1-c1nnc(-c2cccnc2)o1`: the Activity result is reported as “***”.

The next series relates to normal mobilized peripheral blood progenitor cells.
Assay: not given
Particulars: previously characterized; cited from earlier work.
With `O=C(NN=Cc1c(O)ccc2ccccc12)c1ccccc1O` [NSAAH, Naphthyl Salicyl Acyl Hydrazone], the cytotoxicity entry is recorded as “little measurable cytotoxicity”.

The next series concerns the target T2, hRRM1 hexamers (Homo sapiens, UniProt P23921).
T2 sequence (P23921 1-792): T1 sequence (P23921 1-792)
Assay: not given
Conditions: cited from earlier work.
With `Nc1nc(Cl)nc2c1ncn2[C@@H]1O[C@H](CO)[C@@H](O)[C@@H]1F` [clofarabine, 2′-fluro-2′-deoxyarabinofuranosyl-2-chloroadenine], the binding affinity result was “nanomolar affinity”.
